{"source": "patent US20090054376A1", "about": "“BENZOFURAN DERIVATIVES WITH THERAPEUTIC ACTIVITIES” (Pharmos Corporation, priority 2005, published 2009)", "key": {"[1]": {"biological_target": "T1, Human CB2 Receptor (Homo sapiens, UniProt P34972)", "T1 construct": "host or cells: Sf9 or HEK-293 cells (membranes)", "T1 sequence (P34972 whole entry)": "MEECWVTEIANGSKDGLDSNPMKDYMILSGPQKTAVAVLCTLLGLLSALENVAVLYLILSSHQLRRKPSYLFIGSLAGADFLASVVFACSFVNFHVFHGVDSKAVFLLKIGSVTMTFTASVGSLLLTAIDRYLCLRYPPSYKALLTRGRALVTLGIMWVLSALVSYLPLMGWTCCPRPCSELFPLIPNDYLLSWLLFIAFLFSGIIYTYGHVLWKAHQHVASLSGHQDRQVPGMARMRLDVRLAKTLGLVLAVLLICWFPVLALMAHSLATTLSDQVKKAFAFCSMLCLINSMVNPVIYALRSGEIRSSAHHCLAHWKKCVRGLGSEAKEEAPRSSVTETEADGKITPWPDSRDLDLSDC", "assay": "[35S]GTPγS-binding assay, hCB2", "assay_type": "biochemical", "conditions": "GTPγS, Human CB2 Receptor, NB = no binding"}, "[2]": {"test_system": "mechanical allodyna after chronic constriction of the sciatic nerve", "assay": "Neuropathic pain, chronic constriction of the sciatic nerve (CCI)", "assay_type": "in vivo, Male Sprague Dawley rats", "conditions": "four and a half hour after administration", "experimental": "The analgesic activity of compounds of the invention was assessed in a chronic constriction induced (CCI) model of neuropathic pain. […] The development of mechanical allodyna was monitored using a Dynamic Plantar Sesthesiomether as described in Example 18. This apparatus is an automated version of the classical von Frey filaments' test.\nPre-surgery baseline values were ascertained as the mean of 2 pre-surgery values. Once the baseline values are established, the animals were surgically prepared by constricting the right sciatic nerve with 4-0 chromic cat gut loose ligatures. On day 11 post-operation, the animals that have developed mechanical allodyna were arbitrarily allocated to the various treatment groups based on the pre-surgery values.\nThe design was randomized, performed in a masked fashion as to whether drug or vehicle is being given. Male Sprague Dawley rats (average body weight 240 g, Harlan, Israel), were allowed to acclimatize to the behavioral testing equipment prior to testing. On the testing day, the animals, at least six per treatment group, were administered the compounds and controls at a volume dosage of 5 ml/kg. Fifteen minutes later, the mechanical stimulus was applied and the force, measured in grams, causing a withdrawal response for each of the ipsilateral and contralateral hind paws was evaluated.\nResults are expressed as mean±SEM for each treatment group and the differences among those groups are analyzed by analysis of variance (ANOVA) followed by post-hoc Tukey's test. A value of p<0.05 is considered to be statistically significant. Thereafter the difference in the force to be applied to the injured paw as compared to the normal paw was calculated. Δforce, expressed in grams, was measured at baseline and 1 and 4.5 hours after treatment."}, "[3]": {"test_system": "CFA induced rheumatoid arthritis", "assay": "CFA induced rheumatoid arthritis", "assay_type": "in vivo, Female Lewis rats", "experimental": "Female Lewis rats (125 g average body weight, Harlan, Israel), at least eight per treatment group were used in this study. CFA was prepared by combining 100 mg of Mycobacterium Tuberculosis (Difco) with 5 ml of incomplete Freund's adjuvant and grinding for about 3 minutes the resulting mixture until a brownish suspension was obtained. The CFA suspension was administered s.c. at the base of the tail, 0.2 ml/animal. Three tests were performed to evaluate the pain and inflammation caused by the disease. These tests were performed before CFA injection to establish baseline values and 14, 21 and 28 days after disease induction. Compounds of the invention were administered daily for fourteen days p.o. at a dose of 10 mg/kg starting on day 14, after disease onset. A group of animals treated with vehicle only at 5 ml/kg served as control.\nThe parameters monitored were as detailed in Example 18 and include paw edema and redness, and response to thermal and mechanical pain stimuli. At the end of the treatment period the animals were euthanized. The paws were cut and stored in a solution of 4% formalin until histopathological evaluation.\nThe differences among various treatment groups between the severity of the clinical signs, as expressed by paw swelling and redness, as well as the differences in pain responses, as expressed by Latency Time (sec) and Force (g) needed to observe withdrawal of the paw following thermal and mechanical stimuli, and finally the tissue damage, as expressed by the histological scores, were compared using analysis of variance ANOVA followed by post-hoc t-Test. A value of p<0.05 is considered to be statistically significant."}}}
{"smiles": "CCCCCCC(C)(C)c1cc(O)c2c(c1)OC1C(O)CCCCC21", "note": "(stereo not drawn) [Compound C7S-2, 2-(1,1-dimethylheptyl)-5,6,7,8,9,9a-hexahydro-4bH-10-oxa-benzo[α]azulen-4,9-diol]", "values": [{"measurement": "EC50", "setting": "[1]", "result": 227, "unit": "nM"}, {"measurement": "Emax", "setting": "[1]; upper plateau of curve", "result": 26, "unit": "%"}, {"measurement": "inhibition of the pain behavior (expressed in Δforce) as compared to baseline", "setting": "[2]; 0.005 mg/kg i.v.", "result": 58, "unit": "%"}, {"measurement": "inhibition of the pain behavior (expressed in Δforce) as compared to baseline", "setting": "[2]; 0.01 mg/kg i.v.", "result": 67, "unit": "%"}, {"measurement": "inhibition of the pain behavior (expressed in Δforce) as compared to baseline", "setting": "[2]; 0.025 mg/kg i.v.", "result": 84, "unit": "%"}, {"measurement": "inhibition of the pain behavior (expressed in Δforce) as compared to baseline", "setting": "[2]; 0.5 mg/kg i.v.", "result": 92, "unit": "%"}, {"measurement": "decrease in clinical score as compared to first day of treatment", "setting": "[3]; after two weeks of treatment, 10 mg/kg p.o.", "result": 44, "unit": "%"}, {"measurement": "average clinical score regarding the edema", "setting": "[3]; after two weeks of treatment, 10 mg/kg p.o. daily, vehicle 6.67±1.85", "result": "3.29±0.97"}, {"measurement": "average clinical score regarding the edema", "setting": "[3]; day 14, at initiation of treatment, 10 mg/kg p.o. group, vehicle 6.00±1.18", "result": "5.86±1.70"}, {"measurement": "difference in average clinical score in favor of treated animals", "setting": "[3]; day 21, after a week of treatment, 10 mg/kg p.o. daily, vs vehicle", "result": 1.89, "unit": "unit"}, {"measurement": "Force increase over baseline", "setting": "[3]; day 28, 10 mg/kg p.o.", "result": "about 63%"}, {"measurement": "Latency increase over baseline values of day 14", "setting": "[3]; day 28, 10 mg/kg p.o.", "result": "more than 32%"}, {"measurement": "Latency prolonged following thermal stimulus", "setting": "[3]; day 28 vs day 14, 10 mg/kg p.o.", "result": "about 5 seconds"}, {"measurement": "increase of Force needed to elicit a withdrawal response", "setting": "[3]; day 28 vs day 14, 10 mg/kg p.o., mechanical stimulus", "result": 11.1, "unit": "grams"}]}
